Results: US20150342954A1, “2-BENZYL, 3-(PYRIMIDIN-2-YL) SUBSTITUTED PYRAZOLES USEFUL AS SGC STIMULATORS” (IRONWOOD PHARMACEUTICALS, INC., priority 2011, published 2015)
Read-outs that look alike come from different tables or passages of the source.

Key:
[1] = test system: lambs with acute pulmonary hypertension; settings: cited from earlier work; for pulmonary vasodilation / effect on mean arterial pressure / transpulmonary cGMP release / systemic arterial oxygenation: inhaled microparticles, awake lambs, U-46619 infusion; for pulmonary vasodilation: mean pulmonary arterial pressure 35 mm Hg
[2] = molecular target: T1, soluble guanylate cyclase (sGC) (Homo sapiens, UniProt Q02108+Q02153); experiment: sGC-HEK-cGMP assay (run with SNP incubation); type: cell-based; settings: for Emax: Table 3A, 10 μM SNP, 100% = 30 μM BAY 41-2272 with 10 μM SNP, read-out: HEK assay Emax-unconstrained (Percent); for HEK MEC-10: concentration that would elicit 10% of the Emax in the presence of 10 μM SNP; for HEK MEC-10 / EC50: Table 3D; for EC50: in the presence of 10 μM SNP
T1 construct: endogenously expressing soluble guanylate cyclase (sGC); endogenous in cells; host or cells: HEK293
T1 sequence (Q02153 1-619): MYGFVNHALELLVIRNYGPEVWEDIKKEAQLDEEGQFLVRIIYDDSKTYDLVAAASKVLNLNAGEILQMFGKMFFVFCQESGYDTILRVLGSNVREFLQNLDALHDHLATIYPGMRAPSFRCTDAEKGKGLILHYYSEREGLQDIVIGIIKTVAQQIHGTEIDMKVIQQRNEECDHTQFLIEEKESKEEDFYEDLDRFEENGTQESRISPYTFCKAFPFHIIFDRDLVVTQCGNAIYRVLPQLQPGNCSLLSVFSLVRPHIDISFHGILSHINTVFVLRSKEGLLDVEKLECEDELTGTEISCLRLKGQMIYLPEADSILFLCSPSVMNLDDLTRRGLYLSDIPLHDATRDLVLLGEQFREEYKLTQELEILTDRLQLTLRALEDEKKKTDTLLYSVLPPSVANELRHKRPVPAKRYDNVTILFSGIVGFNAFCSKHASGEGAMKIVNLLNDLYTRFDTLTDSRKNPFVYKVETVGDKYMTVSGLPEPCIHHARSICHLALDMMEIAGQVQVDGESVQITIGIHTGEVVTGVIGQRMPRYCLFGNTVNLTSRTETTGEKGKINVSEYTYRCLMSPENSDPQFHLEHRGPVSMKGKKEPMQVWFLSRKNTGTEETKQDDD
T1 sequence (Q02108 1-690): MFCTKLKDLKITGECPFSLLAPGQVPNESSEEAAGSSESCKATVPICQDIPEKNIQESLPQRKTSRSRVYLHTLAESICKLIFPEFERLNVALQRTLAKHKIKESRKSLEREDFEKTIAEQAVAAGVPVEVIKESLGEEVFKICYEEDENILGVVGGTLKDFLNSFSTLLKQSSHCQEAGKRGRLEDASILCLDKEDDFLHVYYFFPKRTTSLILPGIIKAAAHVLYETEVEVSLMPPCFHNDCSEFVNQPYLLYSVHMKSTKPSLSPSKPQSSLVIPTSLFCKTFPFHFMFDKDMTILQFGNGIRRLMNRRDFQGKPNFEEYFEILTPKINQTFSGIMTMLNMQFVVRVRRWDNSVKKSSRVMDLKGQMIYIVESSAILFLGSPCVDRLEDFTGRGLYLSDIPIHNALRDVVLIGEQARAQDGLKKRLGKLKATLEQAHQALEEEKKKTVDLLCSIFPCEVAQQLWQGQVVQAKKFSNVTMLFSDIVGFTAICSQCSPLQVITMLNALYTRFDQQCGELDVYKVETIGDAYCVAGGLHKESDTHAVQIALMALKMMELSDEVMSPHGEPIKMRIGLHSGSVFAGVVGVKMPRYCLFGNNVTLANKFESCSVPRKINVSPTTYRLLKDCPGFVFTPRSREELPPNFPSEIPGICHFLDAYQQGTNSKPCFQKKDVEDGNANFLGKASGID
Summary of the method: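 HEK293 cells with endogenous sGC were pre-treated 15 min at 37 °C with 0.5 mM IBMX, then exposed to test compound plus sodium nitroprusside for 10 min at 37 °C. Cells were lysed in 0.1 M HCl (4 °C, 30 min), and cGMP was quantified by LC/MS against a standard curve. EC50 values came from concentration-response curves.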

Thoracic aortic rings = experiment: Alternative thoracic aortic rings assay (Example 5; original resting tension as 100% inhibition); settings: rat thoracic aortic rings contracted with phenylephrine; for Aortic Ring Percent Relaxation at 1 μM: compound at 1 μM; for Aortic Ring Percent Relaxation at 3 μM: compound at 3 μM; for Aortic Ring Percent Relaxation at 10 μM: compound at 10 μM; for EC50: read-out: Aortic Ring EC50
Method: Thoracic aortic rings were dissected from anesthetized (isoflurane) male Sprague-Dawley rats weighing 275-299 g. Tissues were immediately transferred to ice-cold Krebs-Henseleit solution, which had been aerated with 95% 02 and 5% CO2 for 30 minutes. Following removal of connective tissue, aortic sections were cut into 4 rings (˜2 mm each) and suspended on 2 L-shaped hooks, with one hook fixed at the bottom of the tissue bath (Schuler Organ Bath, Harvard Apparatus) and the other connected to a force transducer (F30 Force Transducer, Harvard Apparatus). Baths contained Krebs Henseleit solution (10 mL) heated to 37° C. and aerated with 95% 02 and 5% CO2. Rings were brought to an initial tension of 0.3-0.5 g and gradually raised to a resting tension of 1.0 g over 60 minutes. Rings were rinsed with Krebs Henseleit solution (heated to 37° C. and aerated with 95% 02 and 5% CO2) at 15 minute intervals until a stable baseline was obtained. Rings were considered to be stable after a resting tension of 1.0 g was maintained (for approximately 10 minutes) without need for adjustment. Rings were then contracted with 100 ng/mL phenylephrine by adding 100 μL of a 10 μg/mL phenylephrine stock solution. Tissues achieving a stable contraction were then treated in a cumulative, dose dependent manner with test compounds prepared in dimethylsulfoxide (DMSO). In some cases, tissues were rinsed three times over a 5 minute period with Krebs-Heinseleit's solution (heated to 37° C. and aerated with 95% 02 and 5% CO2), allowed to stabilize at baseline, and then used for characterization of other test articles or DMSO effects. All data were collected using the HSE-ACAD software provided by Harvard Apparatus. […] EC50 values were calculated from concentration-response curves generated with GraphPad Prism Software.
Biological Activity Measurement by the Thoracic Aortic Rings Assay
The biological data for some of a compound of Table I, in comparison with the known compound, BAY 41-2272, as the reference compound, determined by the thoracic aorta ring assay of Example 5 are presented in Table 6 below.

[3] = test system: Guinea pig tracheal smooth muscle (GPTSM); experiment: Electrical field stimulated guinea pig tracheal smooth muscle in vitro (ex vivo) model of bronchodilation; settings: Cavia porcellus; guinea pig tracheal strips, sub-maximal EFS; 95% CI 0.78-0.94; read-out: IC50, inhibition of EFS-induced tracheal smooth muscle contraction
Description: Electrical Field Stimulated Guinea Pig Tracheal Smooth Muscle In Vitro (Ex Vivo) Model for the Assessment of Bronchodilation.
It is possible to assess the bronchodilating effects of sGC stimulators by using the system described below. This system allowed us to determine potency, efficacy and duration of action of several sGC stimulators, as well as to assess potential side effects such as blood pressure, or heart rate changes. […]
On each experimental day, a guinea pig was killed by exposure to a rising concentration of CO2 and the trachea removed. […] Tissues were washed with Kreb's buffer and stimulated using the previously determined sub-maximal voltage for 1 hour to establish a stable baseline contraction prior to assessment of compound activity.
A cumulative dose response curve (DRC) to each test substance was then performed and changes in smooth muscle contraction measured. The effect of each test substance in each experiment was expressed as a percentage inhibition of the baseline contraction, normalized to the relevant vehicle controls. […] The data from all three experiments was pooled, the DRC plotted, and the test substance potency and efficacy determined.

[4] = top of concentration-response curve not fitted to 100%
[5] = top of concentration-response curve not fitted to 100%, read-out: HEK assay EC50-unconstrained

SMILES | pulmonary vasodilation [1] | effect on mean arterial pressure [1] | transpulmonary cGMP release [1] | magnitude and duration of pulmonary vasodilation induced by iNO ([1]; after inhaling the microparticles, lambs) | systemic arterial oxygenation [1] | pulmonary vasodilation and transpulmonary cGMP release after treatment with ODQ ([1]; inhaled microparticles after intravenous ODQ, lambs) | Emax [2, 4] [%] | HEK MEC-10 [2] | EC50 ([2]; read-out: HEK assay EC50) [µM] | EC50 [2, 5] [µM] | Aortic Ring Percent Relaxation at 1 μM (Thoracic aortic rings) | Aortic Ring Percent Relaxation at 3 μM (Thoracic aortic rings) | Aortic Ring Percent Relaxation at 10 μM (Thoracic aortic rings) | EC50 (Thoracic aortic rings) [µM] | IC50 [3] [µM]
Nc1nc(-c2nn(Cc3ccccc3F)c3ncccc23)ncc1C1CC1 [BAY 41-2272] | dose dependent pulmonary vasodilation | without significant effect on mean arterial pressure | increased transpulmonary cGMP release |  |  |  |  |  |  |  |  |  |  |  | 
Nc1nc(-c2nn(Cc3ccccc3F)c3ncccc23)nc(N)c1N1CCOCC1 [BAY 41-8543] | dose dependent pulmonary vasodilation | without significant effect on mean arterial pressure | increased transpulmonary cGMP release | augmented | increased systemic arterial oxygenation |  |  |  |  |  |  |  |  |  | 
O=C(O)CCCCN(CCc1ccccc1OCc1ccc(CCc2ccccc2)cc1)Cc1ccc(C(=O)O)cc1 [BAY 58-2667] | dose dependent pulmonary vasodilation | without significant effect on mean arterial pressure | increased transpulmonary cGMP release |  | increased systemic arterial oxygenation | greatly enhanced |  |  |  |  |  |  |  |  | 
Oc1nc(-c2cc(-c3ccon3)n(Cc3cccc(F)c3F)n2)ncc1F [Compound 1] |  |  |  |  |  |  | 60 to 80 | B (0.01 to <0.1 μM) | < 20 | 0.01 to 0.5 | F (80 to <100%) | G (100 to <120%) | G (100 to <120%) | < 2 | 
CC1(C(=O)Nc2cnc(-c3cc(-c4ccon4)n(Cc4cccc(F)c4F)n3)nc2N)CC1 [Compound 10] |  |  |  |  |  |  | 100 to 120 | A (0.001 to <0.01 μM) | < 20 | 0.01 to 0.5 | G (100 to <120%) | G (100 to <120%) | G (100 to <120%) | < 2 | 
N#CC1(C(=O)Nc2cnc(-c3cc(-c4ncco4)n(Cc4ccccc4F)n3)nc2N)CC1 [Compound 47, N-(4-amino-2-(1-(2-fluorobenzyl)-5-(oxazol-2-yl)-1H-pyrazol-3-yl)pyrimidin-5-yl)-1-cyanocyclopropanecarboxamide] |  |  |  |  |  |  | 100 to 120 | B (0.01 to <0.1 μM) | < 20 | 0.01 to 0.5 | E (60 or <80%) | F (80 to <100%) | G (100 to <120%) | < 2 | 
CC(C)[N+]1(C)[C@@H]2CC[C@H]1C[C@@H](OC(=O)C(CO)c1ccccc1)C2 (some centres unmarked) [Ipratropium bromide] |  |  |  |  |  |  |  |  |  |  |  |  |  |  | 0.00086
